# Active and inactive are the calls of the source. The calls are words filed in the database; no cut-off is given here.
# Key:
# Candida albicans [1] = assay: Antifungal activity against Candida albicans MTCC 227 at 1 mg/disc after 48 hrs by disc diffusion method; assay type: functional
# Klebsiella pneumoniae [2] = assay: Antibacterial activity against Klebsiella pneumoniae MTCC 109 after 24 hrs; assay type: functional; conditions: MTCC 109, 24 h
# Shigella flexneri [3] = assay: Antibacterial activity against Shigella flexneri MTCC 1457 at 1 mg/disc after 24 hrs by disc diffusion method; assay type: functional
# A549 [4] = assay: Cytotoxicity against human A549 cells assessed as cell death at 100 ug/ml by MTT assay; assay type: functional
# Klebsiella pneumoniae [5] = assay: Antibacterial activity against Klebsiella pneumoniae MTCC 109 at 1 mg/disc after 24 hrs by disc diffusion method; assay type: functional
# Proteus vulgaris [6] = assay: Antibacterial activity against Proteus vulgaris MTCC 1771 at 1 mg/disc after 24 hrs by disc diffusion method; assay type: functional
# Micrococcus luteus [7] = assay: Antibacterial activity against Micrococcus luteus MTCC 106 after 24 hrs; assay type: functional
# Candida albicans [8] = assay: Antifungal activity against Candida albicans MTCC 227 after 48 to 72 hrs; assay type: functional
# Staphylococcus aureus [9] = assay: Antibacterial activity against Staphylococcus aureus MTCC 96 at 1 mg/disc after 24 hrs by disc diffusion method; assay type: functional
# [10] = Antifungal activity against Malassezia pachydermatis at 1 mg/disc after 48 hrs by disc diffusion method; assay type: functional
# Shigella flexneri [11] = assay: Antibacterial activity against Shigella flexneri MTCC 1457 after 24 hrs; assay type: functional; conditions: MTCC 1457, 24 h
# Klebsiella aerogenes [12] = assay: Antibacterial activity against Enterobacter aerogenes MTCC 111 after 24 hrs; assay type: functional
# Salmonella typhimurium [13] = assay: Antibacterial activity against Salmonella typhimurium MTCC 1251 at 1 mg/disc after 24 hrs by disc diffusion method; assay type: functional, Salmonella enterica subsp. enterica serovar Typhimurium
# A549 [14] = assay: Cytotoxicity against human A549 cells assessed as cell death by MTT assay; assay type: functional, cell-based
# Micrococcus luteus [15] = assay: Antibacterial activity against Micrococcus luteus MTCC 106 at 1 mg/disc after 24 hrs by disc diffusion method; assay type: functional
# Salmonella typhimurium [16] = assay: Antibacterial activity against Salmonella typhimurium MTCC 1251 after 24 hrs; assay type: functional, Salmonella enterica subsp. enterica serovar Typhimurium; conditions: Salmonella enterica, MTCC 1251, 24 h
# Klebsiella aerogenes [17] = assay: Antibacterial activity against Enterobacter aerogenes MTCC 111 at 1 mg/disc after 24 hrs by disc diffusion method; assay type: functional
# Staphylococcus aureus [18] = assay: Antibacterial activity against methicillin-resistant Staphylococcus aureus after 24 hrs; assay type: functional
# Staphylococcus aureus [19] = assay: Antibacterial activity against methicillin-resistant Staphylococcus aureus at 1 mg/disc after 24 hrs by disc diffusion method; assay type: functional
# Staphylococcus aureus [20] = assay: Antibacterial activity against Staphylococcus aureus MTCC 96 after 24 hrs; assay type: functional; conditions: MTCC 96, 24 h
# A549 [21] = assay: Cytotoxicity against human A549 cells assessed as cell death at 200 ug/ml by MTT assay; assay type: functional
# A549 [22] = assay: Cytotoxicity against human A549 cells assessed as cell death at 50 ug/ml by MTT assay; assay type: functional
# Proteus vulgaris [23] = assay: Antibacterial activity against Proteus vulgaris MTCC 1771 after 24 hrs; assay type: functional; conditions: MTCC 1771, 24 h
smiles,measurement,setting,value
C#CCN1C(=O)[C@@]2(c3ccccc31)N(C)C[C@](C#N)(C(=O)c1c[nH]c3ccccc13)[C@]21C(=O)Nc2ccccc21,inhibition,Candida albicans [1],inactive
same,MIC,Klebsiella pneumoniae [2],62.5 µg/mL
same,inhibition zone (IZ),Shigella flexneri [3],8 mm
same,Activity,A549 [4],59.31%
same,inhibition zone (IZ),Klebsiella pneumoniae [5],14 mm
same,inhibition zone (IZ),Proteus vulgaris [6],10 mm
same,MIC,Micrococcus luteus [7],inactive
same,MIC,Candida albicans [8],inactive
same,inhibition zone (IZ),Staphylococcus aureus [9],12 mm
same,inhibition,[10],inactive
same,MIC,Shigella flexneri [11],500 µg/mL
same,MIC,Klebsiella aerogenes [12],inactive
same,inhibition zone (IZ),Salmonella typhimurium [13],9 mm
same,IC50,A549 [14],50 µg/mL
same,inhibition,Micrococcus luteus [15],inactive
same,MIC,Salmonella typhimurium [16],500 µg/mL
same,inhibition,Klebsiella aerogenes [17],inactive
same,MIC,Staphylococcus aureus [18],500 µg/mL
same,inhibition zone (IZ),Staphylococcus aureus [19],8 mm
same,MIC,Staphylococcus aureus [20],125 µg/mL
same,Activity,A549 [21],67.67%
same,Activity,A549 [22],55.22%
same,MIC,Proteus vulgaris [23],500 µg/mL

# — ChEMBL document CHEMBL2331252, “Facile one-pot synthesis of novel dispirooxindole-pyrrolidine derivatives and their antimicrobial and anticancer activity against A549 human lung adenocarcinoma cancer cell line” (Bioorg Med Chem Lett, 2013)
